pIC50: −log10 of the molar value.
Columns and labels:
[1] = test system: Foxp3 in human Treg cells; experiment: Foxp3 MFI of human Treg cells; assay type: cell-based; conditions: low doses
Experimental: FIG. 6: Usp22i-S02 halts Usp22-mediated Foxp3 deubiqutination. A, Graphical representation of Foxp3 MFI change in WT versus 22KO iTreg cells treated with various doses of Usp22i-S02 (n=3). B, Representative histogram of Foxp3 MFI level in iTreg cells as Usp22 inhibitor concentration increases from 0-20 μg/mL. C, Cell survival of iTreg cells treated with various doses of Usp22i-S02 (n=3). D, FOXP3 and USP22 protein level in WT and 22KO mice treated with 10 μg/mL Usp22i-S02. E-F, Graphical and representative data of Foxp3 MFI of human Treg cells treated with various doses of Usp22i-S02 (n=3). G, Graphical representation of Foxp3 MFI in WT, Usp21-null, and Usp22-null Treg cells treated with Usp22i-S02 at 10 μg/mL (n=3). H, FOXP3 and USP22 protein degradation of cycloheximide (10 μg/mL) treated iTreg cells with or without the addition of 10 μg/mL of Usp22i-S02. I-J, Endogenous DUB assay IP in iTreg cells of USP22 with FOXP3 under increasing concentrations of Usp22i-S02. K, Foxp3 mRNA level in iTreg cells as Usp22 inhibitor concentration increases from 0-20 μg/mL (n=3). L, FOXP3 and USP22 level in WT iTreg cells with or without 20 μg/mL Usp22 inhibitor treated with 20 μM MG132. M, Graphical representation of the percentage of decrease of Foxp3 MFI in either WT or Usp22-null nTreg cells placed in low glucose conditions with or without the addition of 10 μg/mL of Usp22i-S02 (n=7-8). […]

[2] = test system: FoxP3 and PD-L1 expression; experiment: biological screening of FoxP3 and PD-L1 expression; assay type: cell-based; conditions: inhibition of FoxP3 and PD-L1 expression
Experimental: Biological screening confirmed that USP22i-S02 inhibited the expression of FoxP3 and PD-L1 expression in a USP22-dependent manner. The IC50 is about 6-7 uM. […] In particular, modifications at the R position at A-Ring, or R1 and R2 at E-Ring are likely to improve its biological activity. Therefore, we used the SYBYL drug design software and generated a chemical library of 40400 derivatives (named as USP22-S02X) by modifying the A or/and E ring with 200 functional groups at the R or R1 or R2 or two of the three positions.

[3] = test system: polarized CD4+ T-regulatory cells; experiment: cytotoxicity in polarized CD4+ T-regulatory cells; assay type: cell-based, murine; conditions: 156 ng/mL to 5 ug/mL, compared to DMSO controls
Experimental: FIG. 2: Cytotoxicity of compounds from 156 ng/mL to 5 ug/mL concentration range in polarized CD4+ T-regulatory cells. Murine CD4+ T-cells were isolated and polarized in vitro to T-regulatory cells using 5 ng/mL IL-2, 2 μg/mL anti-IL-4, 2 μg/mL anti-IFNγ, and 1 ng/mL TGFβ. After 48 hours, the inhibitors were added to the cells.
We then synthesized all 17 compounds and validated their cytotoxicity to regulatory T cells. To this end, mouse CD4 T cells were polarized to FoxP3 Tregs for two days, followed by treatment of the cells with each of the compounds at the doses upto 5 ug/ml. […] In addition, the rest of the compounds had poor solubility in DMSO, and were not further tested.

N#Cc1c2c(c(Nc3ccccc3)n3c1nc1ccccc13)CCCC2 [USP22i-S02, 11-anilino-7,8,9,10-tetrahydrobenzimidazo[1,2-b]isoquinoline-6-carbonitrile]
Foxp3 MFI in human Treg cells [1]: significantly decreased Foxp3 MFI
viability of human Treg cells [1]: little effect to cell viability
pIC50 [2]: 5.15 to 5.22
cytotoxicity to Tregs [3]: does not show severe cytotoxicity
